Values quoted from earlier work as cited in patent US20080095722A1, “Extended Surface Aggregates in the Treatment of Skin Conditions” (IDEA AG, priority 2004, published 2008).
Like-named read-outs stand apart in the source and are kept apart here.

Experiments:
[1] = system: melanocytes; settings: cell cultures, cited from earlier work
[2] = system: erythema; settings: gel base or alcoholic solution; cited from earlier work

In the case of `CC(=O)Oc1ccccc1C(=O)O` [acetylsalicylic acid], the effect on melanocytes ([1]; low concentrations) is given as “stimulate melanocytes” and the effect on melanocytes ([1]; very high concentrations) is given as “may cause melanocyte apoptosis”.

For `COc1ccc2c(c1)c(CC(=O)O)c(C)n2C(=O)c1ccc(Cl)cc1` [indomethacin], the “inhibition of the appearance of erythema” value [2] is listed as “some inhibition of the appearance of erythema”.
